As a reminder, the EC50 is the concentration needed to bring the measured effect to its halfway point.

Holding throughout (test): microbe, parasite or virus in culture
Assay [1] relates to Pseudotyped HCV GT1a particles (HCVpp). In kind it is cell-based, Hepatitis C virus GT1a H77 strain. The settings on record: Hepatitis C virus, 72 h, read-out: HCVpp GT-1a (EC50, μM).
For assay [2], the system named is pseudotyped VSV G particles (VSVpp). In kind it is cell-based. The settings on record: Vesicular stomatitis virus, 72 h, read-out: VSVpp (EC50, μM).
The test system of assay [3] is Pseudotyped HCV GT1b particles (HCVpp). In kind it is cell-based, Hepatitis C virus GT1b Con1 strain. The settings on record: Hepatitis C virus, 72 h, read-out: HCVpp GT-1b (EC50, μM).

`Nc1n[nH]c(Nc2cc(F)c(Sc3ccccc3)c(C(F)(F)F)c2)n1` [Compound 1, N^5-(3-Fluoro-4-phenylsulfanyl-5-trifluoromethylphenyl)-1H-[1,2,4]-triazole-3,5-diamine]: the EC50 in assay [1] is 0.31 µM; in assay [2], 13.2 µM.
On to `Nc1nc(Nc2ccc(Nc3ccccc3)c(Cl)c2)n[nH]1` [Compound 2, N*3*-(3-Chloro-4-phenylamino-phenyl)-1H-[1,2,4]triazole-3,5-diamine], for which the EC50 was found to be 2.44 µM in assay [1], 0.393 µM in assay [3] and 86 µM in assay [2].
`Nc1nc(Nc2ccc(Oc3ccccc3)c(Cl)c2)n[nH]1` [Compound 3, N*3*-(3-Chloro-4-phenoxy-phenyl)-1H-[1,2,4]triazole-3,5-diamine]: the EC50 in assay [1] was 2.77 µM; in assay [3], 0.329 µM; in assay [2], 35.5 µM.
For the molecule `Nc1nc(Nc2cc(Cl)c(Sc3ccccc3)c(Cl)c2)n[nH]1` [Compound 4, N*3*-(3,5-Dichloro-4-phenylsulfanyl-phenyl)-1H-[1,2,4]triazole-3,5-diamine], the EC50 came out at 0.076 µM in assay [1] and 3.3 µM in assay [2].
`Nc1nc(Nc2cc(Cl)c([S+]([O-])c3ccccc3)c(Cl)c2)n[nH]1` (stereo not shown) [Compound 5, N*3*-(4-Benzenesulfinyl-3,5-dichloro-phenyl)-1H-[1,2,4]triazole-3,5-diamine]: the EC50 was 0.293 µM in assay [1] and 25.3 µM in assay [2].
Take `Nc1nc(Nc2cc(Cl)c(S(=O)(=O)c3ccccc3)c(Cl)c2)n[nH]1` [Compound 6, N*3*-(4-Benzenesulfonyl-3,5-dichloro-phenyl)-1H-[1,2,4]triazole-3,5-diamine]: the results for the EC50 in assay [1] and in assay [2] were 0.139 µM and 34 µM, respectively.
Regarding `Nc1nc(Nc2cc(Cl)c(Sc3ccc(C(F)(F)F)cc3)c(Cl)c2)n[nH]1` [Compound 7, N3-(3,5-dichloro-4-(4-(trifluoromethyl)phenylthio)phenyl)-1H-1,2,4-triazole-3,5-diamine], the EC50 in assay [3] was determined as 0.009 µM; in assay [2] it was 100 µM.
Consider `Nc1nc(Nc2cc(Cl)c([S+]([O-])c3ccc(C(F)(F)F)cc3)c(Cl)c2)n[nH]1` (stereo not shown) [Compound 8, N3-(3,5-dichloro-4-(4-(trifluoromethyl)phenylsulfinyl)phenyl)-1H-1,2,4-triazole-3,5-diamine], for which the EC50 in assay [1] stood at 0.114 µM; in assay [3] it was 0.079 µM; in assay [2] it was 10 µM.
Regarding `Nc1nc(Nc2cc(Cl)c(Sc3cccc(C(F)(F)F)c3)c(Cl)c2)n[nH]1` [Compound 9, N3-(3,5-dichloro-4-(3-(trifluoromethyl)phenylthio)phenyl)-1H-1,2,4-triazole-3,5-diamine], the EC50 in assay [1] is 0.15 µM; in assay [2], 3 µM.
Regarding `Nc1nc(Nc2cc(Cl)c(Sc3ccccc3C(F)(F)F)c(Cl)c2)n[nH]1` [Compound 10, N*3*-[3,5-Dichloro-4-(2-trifluoromethyl-phenylsulfanyl)-phenyl]-1H-[1,2,4]triazole-3,5-diamine], the EC50 in assay [1] turned out to be 0.263 µM; in assay [2] it was 7.7 µM.
As to `Nc1nc(Nc2cc(Cl)c([S+]([O-])c3cccc(C(F)(F)F)c3)c(Cl)c2)n[nH]1` (stereo not shown) [Compound 11, N^3-[3,5-Dichloro-4-(3-trifluoromethyl-benzenesulfinyl)-phenyl]-1H-[1,2,4]triazole-3,5-diamine], the EC50 in assay [1] amounted to 0.61 µM; in assay [2], 10 µM.
On to `N#Cc1ccc(Sc2c(Cl)cc(Nc3n[nH]c(N)n3)cc2Cl)cc1` [Compound 12, 4-[4-(5-Amino-1H-[1,2,4]triazol-3-ylamino)-2,6-dichloro-phenylsulfanyl]-benzonitrile], for which the EC50 stood at 0.077 µM in assay [1] and 3.4 µM in assay [2].
For `N#Cc1ccc([S+]([O-])c2c(Cl)cc(Nc3n[nH]c(N)n3)cc2Cl)cc1` (stereo not shown) [Compound 13, 4-[4-(5-Amino-1H-[1,2,4]triazol-3-ylamino)-2,6-dichloro-benzenesulfinyl]-benzonitrile] the same measures were 0.674 µM and 10 µM.
The like results for `N#Cc1ccc(S(=O)(=O)c2c(Cl)cc(Nc3n[nH]c(N)n3)cc2Cl)cc1` [Compound 14, 4-[4-(5-Amino-1H-[1,2,4]triazol-3-ylamino)-2,6-dichloro-benzenesulfonyl]-benzonitrile] were, in that order, 0.366 µM and 10 µM.
Turning to `COC(=O)c1ccc(Sc2c(Cl)cc(Nc3n[nH]c(N)n3)cc2C(F)(F)F)cc1` [Compound 15, 4-[4-(5-Amino-1H-[1,2,4]triazol-3-ylamino)-2-chloro-6-trifluoromethyl-phenylsulfanyl]-benzoic acid methyl ester], the EC50 came out at 0.133 µM in assay [1] and 49.8 µM in assay [2].
Consider `COc1ccc(Sc2c(Cl)cc(Nc3n[nH]c(N)n3)cc2Cl)cc1` [Compound 16, N*3*-[3,5-Dichloro-4-(4-methoxy-phenylsulfanyl)-phenyl]-1H-[1,2,4]triazole-3,5-diamine], for which the concentration giving a half-maximal response (EC50) in assay [1] amounted to 1.02 µM; in assay [2] it was 40.2 µM.
Regarding `COc1ccc(Sc2c(Cl)cc(Nc3n[nH]c(N)n3)cc2C(F)(F)F)cc1` [Compound 17, N*3*-[3-Chloro-4-(4-methoxy-phenylsulfanyl)-5-trifluoromethyl-phenyl]-1H-[1,2,4]triazole-3,5-diamine], the EC50 in assay [1] is 1.04 µM; in assay [2], 34.9 µM.
Consider `COc1ccc(S(=O)(=O)c2c(Cl)cc(Nc3n[nH]c(N)n3)cc2Cl)cc1` [Compound 18, N*3*-[3,5-Dichloro-4-(4-methoxy-benzenesulfonyl)-phenyl]-1H-[1,2,4]triazole-3,5-diamine], for which the figures for the EC50 in assay [1] and in assay [2] were 0.126 µM and 0.1 µM, respectively.
Take `CS(=O)(=O)c1ccc(Oc2c(Cl)cc(Nc3n[nH]c(N)n3)cc2Cl)cc1` [Compound 19, N*3*-[3,5-Dichloro-4-(4-methanesulfonyl-phenoxy)-phenyl]-1H-[1,2,4]triazole-3,5-diamine]: the EC50 in assay [1] amounted to 0.019 µM; in assay [3], 0.008 µM; in assay [2], 20.2 µM.
For `CS(=O)(=O)c1ccc(Oc2c(Cl)cc(Nc3n[nH]c(N)n3)cc2C(F)(F)F)cc1` [Compound 20, N*3*-[3-Chloro-4-(4-methanesulfonyl-phenoxy)-5-trifluoromethyl-phenyl]-1H-[1,2,4]triazole-3,5-diamine], the half-maximal effective concentration (EC50) came to 0.232 µM in assay [1] and 10 µM in assay [2].
As to `Nc1nc(Nc2cc(Cl)cc(OCc3ccccc3)c2)n[nH]1` [Compound 21, N*5*-(3-Benzyloxy-5-chloro-phenyl)-1H-[1,2,4]triazole-3,5-diamine], the EC50 is 1.67 µM in assay [1] and 39.2 µM in assay [2].
As to `Nc1nc(Nc2ccc(Sc3ccccc3)c(Cl)c2)n[nH]1` [Compound 22, N3-(3-chloro-4-(phenylthio)phenyl)-1H-1,2,4-triazole-3,5-diamine], the EC50 in assay [1] was 1.65 µM; in assay [3], 0.229 µM; in assay [2] it was 14.3 µM.
With `Nc1nc(Nc2ccc(S(=O)(=O)c3ccccc3)c(Cl)c2)n[nH]1` [Compound 23, N3-(3-chloro-4-(phenylsulfonyl)phenyl)-1H-1,2,4-triazole-3,5-diamine], the values for the half-maximal effective concentration (EC50) in assay [1], in assay [3] and in assay [2] were 4.62 µM, 0.517 µM and 40.1 µM, respectively.
Take `CN(c1ccc(Sc2ccccc2)c(Cl)c1)c1n[nH]c(N)n1` [Compound 24, N3-(3-chloro-4-(phenylthio)phenyl)-N3-methyl-1H-1,2,4-triazole-3,5-diamine]: the EC50 was 42.1 µM in assay [3] and 100 µM in assay [2].
Take `Nc1nc(Nc2cc(Cl)cc(Oc3ccccc3)c2)n[nH]1` [Compound 25, N*3*-(3-Chloro-5-phenoxy-phenyl)-1H-[1,2,4]triazole-3,5-diamine]: the EC50 in assay [3] worked out at 1.9 µM; in assay [2] it was 100 µM.
In the case of `Nc1nc(Nc2cc(Cl)c(Oc3ccccn3)c(Cl)c2)n[nH]1` [Compound 26, N*3*-[3,5-Dichloro-4-(pyridin-2-yloxy)-phenyl]-1H-[1,2,4]triazole-3,5-diamine], the EC50 is 1.88 µM in assay [1] and 43.5 µM in assay [2].
